From patent US20200405793A1, “USE OF […] PATHWAY INHIBITOR AND […] PREPARING ANTI-TUMOR DRUG” (GUANGZHOU VIROTECH PHARMACEUTICAL CO., LTD., priority 2017, published 2020) come the findings set out here.

One series deals with alphavirus M1. Nature of the series: Mevalonate pathway inhibiting compounds acting on tumor cells with M1 virus: virus replication. The class given is cell-based.
In series [1] the test system is HCT-116 cells. Nature of the series: Cell morphology after fluvastatin and M1 virus treatment. The class given is cell-based, human. The settings on record: fluvastatin 2 μM, M1 virus MOI=1, 48 hours. As for the experimental part: (§1) a) Cell culture: human intestinal cell carcinoma strain HCT-116 was grown in a DMEM complete medium containing 10% FBS, 100 U/ml penicillin and 0.1 mg/ml streptomycin; all cell strains were cultured in a constant temperature closed incubator at 5% CO2, 37° C. (95% RH) and observed by the inverted microscope. Cells were passaged once for approximately 2-3 days and the cells in logarithmic growth phase were used for formal experiments.
c) Cells were inoculated into a 24-well plate at 30,000 cells/well; after the cells were treated with fluvastatin 2 (μM), they were infected with M1 virus (MOI=1); and the changes of cell morphology were observed under the inverted phase contrast microscope after 48 hours.

The subject of series [2] is M1 viral proteins (structural protein E1 and non-structural protein NS3). Nature of the series: Immunoblot of M1 viral proteins after statin treatment of M1-infected HCT-116 cells. It is filed as cell-based, M1 virus. Particulars: concentration not given. As for the experimental part: as §1
Cells were infected with M1 virus (MOI=1), treated with M1 virus (MOI=1) combined with fluvastatin or atorvastatin (1 and 10 μM), and cellular proteins were harvested after 24 hours and immunoblotted.

The subject of series [3] is HCT-116, Capan-1 and SW 1990 cells. In words: Cell morphology under inverted phase contrast microscope after siRNA interference of HMGCR and M1 virus infection. It is filed as cell-based, human. Particulars: HCT-116, Capan-1, SW 1990; siRNA 25 nM; M1 virus 1 MOI; 48 h after infection. As for the experimental part: (§2) The cells were inoculated into a 35 mm culture dish, cultured until the confluence degree of the cells reaches 60% and subjected to the following interference treatment: firstly, a Lipofectamine RNAiMAX solution was prepared with Opti-MEM by diluting according to 2 μL: 198 μL per culture dish and uniformly mixing; secondly, an siRNA solution was prepared with Opti-MEM by diluting according to 1.8 μL: 198 μL per culture dish, wherein the final concentration of siRNA was 25 nM, and mixing gently; finally, the diluted Lipofectamine RNAiMAX and siRNA were mixed, and stood for 15 minutes at room temperature; the mixed solution was added into a culture dish containing 1.5 mL of serum-free culture medium; and the medium was changed to a complete medium after 24 hours, and infected with M1 virus (1MOI). The changes in cell morphology were observed after 48 h under the inverted phase contrast microscope.

Series [4] relates to M1 virus structural protein E1 and nonstructural protein NS3. In words: Immunoblot of M1 viral proteins after siRNA interference of mevalonate pathway genes. The settings on record: HCT-116; siRNA HMGCR, SQLE, FNTB, PGGT1B, RABGGTB 25, 25, 4, 20, 20 nM; M1 1 MOI; 24 hours. It is filed as cell-based. As for the experimental part: as §2, with “interfering HMGCR, SQLE, FNTB, PGGT 1B and RABGGTB (specifically see FIG. 9 and the description of the Figures) were 25, 25, 4, 20 and 20 nM respectively,” for “was 25 nM,”, “Cell lysates” for “The changes in cell morphology”, “collected” for “observed”, “24 hours and immunoblotted.” for “48 h under the inverted phase contrast microscope.”
A general note: A western blot detects proteins with antibodies after separation by electrophoresis.

The subject of series [5] is HCT-116 cells. Nature of the series: MTT cell viability, Tipifarnib and M1 virus. It is filed as cell-based, human. The settings on record: Tipifarnib 50 nM, M1 virus MOI=1, 48 h. An excerpt:
(§3) Each group of experiments was repeated 3 times.

A further series concerns SW1990 cells. In words: MTT cell viability, Tipifarnib and M1 virus. It is filed as cell-based, human. The settings on record: Tipifarnib 50 nM, M1 virus MOI=1, 48 h.
Description: as §3

For series [6], the system named is HCT-116 or SW 1990 transplanted tumors. In words: Growth of subcutaneous transplanted tumors in nude mice. It is filed as in vivo, BALB/c nude mice. The settings on record: Tipifarnib 500 μg/kg/d i.p.; M1 2×10^9 PFU/kg/d tail vein; 6 consecutive injections; vs control group; both tumor models. As for the experimental part: This experiment used a randomized, single-blind design. 5×10^6 HCT-116 or SW 1990 cells were injected subcutaneously into the dorsal flank of the 4 week old BALB/c nude mouse.
When the tumor size reached 50 mm3, the mice were divided into […], including untreated control group, Tipifarnib alone group (500 μg/kg/d by intraperitoneal injection), M1 infection alone group (2×10^9 PFU/kg/d by tail vein injection of M1 virus) and Tipifarnib/M1 combined group (same dose of Tipifarnib and M1 virus), and treated with 6 consecutive injections. The length, width and weight of the tumor were measured every two days, and the volume of the tumor was measured according to the formula (length×width^2)/2. One way ANOVA was performed after measuring tumor volume, ***indicates p<0.001.

“Also recorded” adds a separate entry of the source.

As for `COC(=O)[C@H](CCSC)NC(=O)c1ccc(NC[C@@H](N)CS)cc1-c1ccccc1.O=C(O)C(F)(F)F` [FTI277], in the series on alphavirus M1, the “replication of the alphavirus M1” value is listed as “promote replication of the alphavirus Ml”.
Turning to `CC(C)n1c(/C=C/[C@@H](O)C[C@@H](O)CC(=O)[O-])c(-c2ccc(F)cc2)c2ccccc21.[Na+]` [fluvastatin], in the series with HCT-116 cells [1], the “changes of cell morphology” value is reported as “induced lesions in a small number of cells”. In addition, the “expression of M1 virus protein” value in series [2] is reported as “significantly increase the protein expression of M1 virus; also recorded: promote the expression of M1 virus protein”. Also, in the series on alphavirus M1, the “replication of the alphavirus M1” value is on record as “promote replication of the alphavirus Ml”.
“AACCCAAUGCCCAUGUUCCdTdT (as printed in the source, key not given here) [siRNA targeting HMGCR, siRNA interfering the HMG-CoA reductase gene (HMGCR)]”: the “changes in cell morphology” value in series [3] is listed as “did not affect the morphology of tumor cells”. Besides, the “expression of structural protein E1 and nonstructural protein NS3 of the virus” value in series [4] is on record as “increased significantly; also recorded: significantly increase the protein expression of M1 virus”.
atorvastatin: in series [2], the “expression of M1 virus protein” value was “significantly increase the protein expression of M1 virus; also recorded: promote the expression of M1 virus protein”. In addition, the “replication of the alphavirus M1” value in the series on alphavirus M1 was “promote replication of the alphavirus Ml”.
In the case of `Cn1cncc1[C@@](N)(c1ccc(Cl)cc1)c1ccc2c(c1)c(-c1cccc(Cl)c1)cc(=O)n2C` [Tipifarnib], the “tumor cell survival rate” value with HCT-116 cells [5] is reported as 80%; with SW1990 cells, 90%. Besides, the tumor volume entry in series [6] is listed as “only a slight reduction in tumor volume”. Besides, the “replication of the alphavirus M1” value with alphavirus M1 is recorded as “promote replication of the alphavirus Ml”.
